Structures are written as SMILES.

What all share (assay type): functional
For test [1], the target named is T1, Glucose-dependent insulinotropic receptor (Homo sapiens, UniProt Q8TDV5).
T1 sequence (Q8TDV5 whole entry): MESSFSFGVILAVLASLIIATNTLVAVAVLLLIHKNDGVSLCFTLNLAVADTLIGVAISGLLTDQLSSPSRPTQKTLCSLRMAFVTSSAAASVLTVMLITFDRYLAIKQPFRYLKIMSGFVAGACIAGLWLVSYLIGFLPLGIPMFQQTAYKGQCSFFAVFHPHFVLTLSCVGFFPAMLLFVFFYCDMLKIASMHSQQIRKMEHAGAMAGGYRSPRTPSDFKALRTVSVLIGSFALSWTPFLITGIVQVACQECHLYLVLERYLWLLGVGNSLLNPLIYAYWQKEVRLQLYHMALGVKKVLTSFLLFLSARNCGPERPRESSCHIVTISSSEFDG
In words: Agonist activity at human GPR119 by HTRF cAMP assay.

A short description of test [2]: Effect on glucose homeostasis in diabetes model (unknown origin) assessed as release of GIP at 3 mg/kg, […] measured 40 mins post glucose challenge.
Test [3] is described as follows: Effect on glucose homeostasis in diabetes model (unknown origin) assessed as release of GIP at 3 mg/kg, […] measured 60 mins post glucose challenge.
Test [4] is described as follows: Effect on glucose homeostasis in diabetes model (unknown origin) assessed as release of GIP at 3 mg/kg, […] measured 20 mins post glucose challenge.
Test [5] relates to unidentified. Kind of test: Effect on glucose homeostasis in diabetes model (unknown origin) assessed as release of GIP at 30 mg/kg, […] measured 40 mins post glucose challenge.
For test [6], the system named is unidentified. In words: Effect on glucose homeostasis in diabetes model (unknown origin) assessed as release of GIP at 30 mg/kg, […] measured 60 mins post glucose challenge.
Test [7] relates to unidentified. In words: Effect on glucose homeostasis in diabetes model (unknown origin) assessed as release of GIP at 30 mg/kg, po administered intratracheally measured 120 mins post glucose challenge.
Test [8] can be described thus: Effect on glucose homeostasis in diabetes model (unknown origin) assessed as release of GIP at 3 mg/kg, […] measured 120 mins post glucose challenge.
A short description of test [9]: Effect on glucose homeostasis in diabetes model (unknown origin) assessed as release of GIP at 3 mg/kg, […] measured 30 mins before glucose challenge.
In test [10] the test system is unidentified. In words: Effect on glucose homeostasis in diabetes model (unknown origin) assessed as release of GIP at 30 mg/kg, po administered intratracheally measured 30 mins before glucose challenge.
Test [11] relates to unidentified. In words: Effect on glucose homeostasis in diabetes model (unknown origin) assessed as release of GIP at 30 mg/kg, […] measured 20 mins post glucose challenge.

In test [1], `CC(C)(C)OC(=O)N1CCC(CO[C@H]2CC[C@H](c3cnc(S(C)(=O)=O)cn3)CC2)CC1` yielded a concentration for a half-maximal effect (EC50) of 707 nM.

The molecule `CC(C)c1noc(N2CCC(CO[C@H]3CC[C@H](c4ccc(S(C)(=O)=O)cc4F)CC3)CC2)n1` came in with an EC50 in test [1] of 38 nM.

Turning to `CC(C)(F)c1noc(N2CCC(COC3CC=C(c4ccc(S(C)(=O)=O)cc4)CC3)CC2)n1` (stereo not drawn), the EC50 in test [1] worked out at 15 nM.

Regarding `CCc1cnc(N2CCC(CO[C@H]3CC[C@H](c4ccc(S(C)(=O)=O)cc4F)CC3)CC2)nc1`, the Activity in [2] is on record as 250.2%; in test [3], 262.8%; in [4], 201.3%; with unidentified [5] it was 204.2%; in the test with unidentified [6] it was 193.2%; with unidentified [7], 107.5%. Further, the Activity is reported as 163.3% in [8], 88.7% in test [9], 72.2% in the test with unidentified [10] and 163.5% in the test on unidentified [11].

Broadly, the EC50 is the concentration at which the effect is half-maximal. High values mean weaker potency, low ones greater potency.

For the origin of these results see ChEMBL document CHEMBL2321708, “Modulators of the GPR119 Receptor for the Treatment of Metabolic Syndrome” (ACS Med Chem Lett, 2013).
